Measured values from ChEMBL document CHEMBL2434919, “Synthesis, cytotoxicity, and DNA-binding property of berberine derivatives” (Med Chem Res, 2013).
Activity calls are given as the source filed them. No cut-off for these calls is given here.

What was measured:
HL-60 = experiment: Cytotoxicity against human HL60 cells after 48 hrs by MTT assay; assay type: functional, cell-based; settings: HL-60, 48 h
DNA [1] = experiment: Binding affinity to calf thymus DNA assessed as conformational changes in DNA morphology at […] after 2 hrs by circular dichroism analysis; assay type: nucleic-acid assay; settings: Bos taurus
Bel-7402 = experiment: Cytotoxicity against human Bel7402 cells after 48 hrs by MTT assay; assay type: functional, cell-based; settings: Bel-7402, 48 h
BGC-823 = experiment: Cytotoxicity against human BGC823 cells after 48 hrs by MTT assay; assay type: functional, cell-based; settings: BGC-823, 48 h
DNA [2] = experiment: Binding affinity to calf thymus DNA assessed as change in melting temperature at 100 uM by spectroscopic analysis; assay type: nucleic-acid assay; settings: Bos taurus
KB = experiment: Cytotoxicity against human KB cells after 48 hrs by MTT assay; assay type: functional, cell-based
DNA [3] = experiment: Binding affinity to calf thymus DNA assessed as hypochromicity at 20 uM after 2 hrs by UV-Vis absorption titration analysis; assay type: nucleic-acid assay; settings: Bos taurus
DNA [4] = experiment: Binding affinity to calf thymus DNA assessed as intercalation after 2 hrs by Stern-Volmer plot relative to control; assay type: nucleic-acid assay; settings: Bos taurus
DNA [5] = experiment: Binding affinity to calf thymus DNA assessed as intercalation after 2 hrs by UV-Vis absorption titration analysis; assay type: nucleic-acid assay; settings: Bos taurus

Compound | Activity (DNA [1]) | ΔTm (DNA [2]) | Activity (DNA [3]) | KSV (DNA [4]) | K (DNA [5]) | IC50 (HL-60) | IC50 (Bel-7402) | IC50 (BGC-823) | IC50 (KB)
COc1ccc2cc3[n+](cc2c1OCCOCCN1CCOCC1)CCc1cc2c(cc1-3)OCO2 | Active | 1.7 °C | 21% | 1.82 ×10⁵ /M | 6.32 ×10⁶ /M | 16.4 µM | 9.44 µM | 11.9 µM | 9.93 µM
COc1ccc2cc3[n+](cc2c1OCCN1CCCCC1)CCc1cc2c(cc1-3)OCO2 | Active | 2.2 °C | 21% | 7.09 ×10⁴ /M | 1.27 ×10⁸ /M | 6.51 µM | 27.5 µM | 10.2 µM | 17.1 µM
COc1ccc2cc3[n+](cc2c1OCCN1CCOCC1)CCc1cc2c(cc1-3)OCO2 | Active | 1.4 °C | 17% | 1.27 ×10⁵ /M | 3.55 ×10⁸ /M | 2.71 µM | 11.6 µM | 2.82 µM | 5.46 µM
COc1ccc2cc3[n+](cc2c1O)CCc1cc2c(cc1-3)OCO2 [BERBERRUBINE CHLORIDE] | – | – | – | – | – | 11.4 µM | 34.3 µM | 7.66 µM | 6.92 µM
COc1ccc2cc3[n+](cc2c1OC)CCc1cc2c(cc1-3)OCO2 [BERBERINE CHLORIDE] | – | – | – | – | – | 5.83 µM | 16.3 µM | 7.04 µM | 6.03 µM

Now from value to compound, other results behind:

Activity (DNA [1]) | ΔTm (DNA [2]) | Activity (DNA [3]) | KSV (DNA [4]) | K (DNA [5]) | Compound | IC50 (HL-60) | IC50 (Bel-7402) | IC50 (BGC-823) | IC50 (KB)
Active | 1.5 °C | 19% | 8.01 ×10⁴ /M | 1.49 ×10⁶ /M | COc1ccc2cc3[n+](cc2c1OCCOCCN1CCCCC1)CCc1cc2c(cc1-3)OCO2 | 46.8 µM | 17.9 µM | 22.2 µM | 19.7 µM
Active | 1.3 °C | 21% | 1.01 ×10⁵ /M | 1.86 ×10⁵ /M | COc1ccc2cc3[n+](cc2c1OCCOCCOCCN1CCCCC1)CCc1cc2c(cc1-3)OCO2 | 45.8 µM | 33.4 µM | 20.6 µM | 33.9 µM
Active | 1.2 °C | 25% | 1.79 ×10⁵ /M | 3.45 ×10⁵ /M | COc1ccc2cc3[n+](cc2c1OCCOCCOCCN1CCOCC1)CCc1cc2c(cc1-3)OCO2 | 14.8 µM | 9.66 µM | 10.8 µM | 10 µM
